The source of these data is article PMC2671474 (Chemistry & biology, 2009).

For one experiment, the target named is P. falciparum FTase (Plasmodium falciparum, UniProt Q5EI73+Q5EI74). The experiment in a line: P. falciparum FTase activity assay as described in Glenn et al., 2006. The class given is biochemical. Conditions: for Selectivity: IC50 for hFTase divided by IC50 for PfFTase.
A further experiment concerns the target Human FTase (Homo sapiens, UniProt P49354+P49356). Conditions: legend of Figure 4C; mammalian enzyme.
The mark [1] stands for this setting: read-out: inhibition of P. falciparum FTase activity.

Usually inhibition stands for how much of the control response was suppressed.

On to `Cc1ccccc1S(=O)(=O)N(CCN(Cc1cncn1C)c1ccc(C#N)cc1)CC1CCN(C(=O)OC(C)(C)C)CC1` [Compound 5, N-(N-tert-Butoxycarbonylpiperidin-4-ylmethyl), N-({2-[(4-cyanophenyl)-(3-methyl-3H-imidazol-4-ylmethyl)-amino]-ethyl}) 2-methylbenzenesulfonamide], for which, on P. falciparum FTase (setting [1]), the inhibition at 0.0005 µM is 20% and the inhibition at 0.005 µM is 76%.
For the compound `Cn1cncc1CN(CCN(CC1CCN(C(=O)OC(C)(C)C)CC1)S(=O)(=O)c1ccccc1-c1cccc(CCC(=O)O)c1)c1ccc(C#N)cc1` [Compound 10, N-(N-tert-Butoxycarbonylpiperidin-4-ylmethyl), N-({2-[(4-cyanophenyl)-(3-methyl-3H-imidazol-4-ylmethyl)-amino]-ethyl}) (3′-(2-carboxyethyl)-biphenyl)-2-sulfonamide], the Selectivity at P. falciparum FTase was determined as 11. Further, the “IC50 (in words)” value on Human FTase was “sub-micromolar”.
At P. falciparum FTase, `Cc1ccccc1S(=O)(=O)N(CCN(Cc1cncn1C)c1ccc(C#N)cc1)Cc1ccccc1` [Compound 7, N-Benzyl, N-{2-[(4-cyanophenyl)-(3-methyl-3H-imidazol-4-ylmethyl)-amino]-ethyl} 2-methyl-benzenesulfonamide] displayed a Selectivity of 32.
